Test systems include SF-295; OVCAR-8; HCC 2998; HCT-116; SNB-19; EKVX; HOP-92; NCI-H23; KM12; SK-MEL-5; SF-268; SN12C; NCI-H522; IGROV-1; LOX IMVI; SF-539; SW-620; Malme-3M; HT-29; MOLT-4.
Common to all, as to assay: NCI tumour cell line growth inhibition, 48 h

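A five-concentration, 48-hour dose response in 96-well plates underlies each endpoint, interpolated linearly between surrounding concentrations. At the GI50, growth is halved.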 The source made the active and inactive calls. Cut-off read from the data, not from the text of the source: active = GI50 up to about 1.1 µM and inactive = higher.

With `CCOCC(=O)N(C)c1cccc2c3c(n(C)c12)CCCCC3`, the GI50 with SF-295 is > 100 µM (inactive); in the assay on OVCAR-8, > 100 µM (inactive); in the assay on HCC 2998, > 100 µM (inactive); with HCT-116, > 100 µM (inactive); in the assay with SNB-19, > 23.8 µM (inactive); in the assay on EKVX, > 100 µM (inactive). Further, the GI50 with HOP-92 is > 94.8 µM (inactive); in the assay on NCI-H23, > 100 µM (inactive); with KM12 it was > 100 µM (inactive); with SK-MEL-5, > 100 µM (inactive); in the assay on SF-268, > 100 µM (inactive); in the assay with SN12C, > 100 µM (inactive). Further, the GI50 with NCI-H522, in the assay with IGROV-1, in the assay with LOX IMVI, with SF-539, in the assay with SW-620 and with Malme-3M was > 100 µM (inactive) throughout. The GI50 is > 100 µM (inactive) in the assay on HT-29 and > 61.5 µM (inactive) in the assay on MOLT-4.
As for `Cc1cc(OCC(O)CO)ccc1Cl` (stereo not given), the GI50 with SF-295, with OVCAR-8, in the assay with HCC 2998, in the assay on HCT-116, with SNB-19 and in the assay on EKVX was > 100 µM (inactive) each time. The GI50 with HOP-92, in the assay with NCI-H23, in the assay with KM12, in the assay with SK-MEL-5, in the assay on SF-268 and in the assay on SN12C was > 100 µM (inactive) in each case. Also, the GI50 with NCI-H522, with IGROV-1, with LOX IMVI, with SF-539, with SW-620 and in the assay on Malme-3M was > 100 µM (inactive) throughout. Besides, the GI50 in the assay on HT-29 and in the assay on MOLT-4 was > 100 µM (inactive) throughout.
As to `CC1=CC2=C(C=O)C(=O)[C@](C)(O)[C@@H](O)C2=CO1`, the GI50 was 35.7 µM (inactive) in the assay with SF-295; > 64.7 µM (inactive) in the assay on OVCAR-8; 19.1 µM (inactive) in the assay on HCC 2998; 22.3 µM (inactive) with HCT-116; 0.982 µM (active) in the assay with SNB-19; 46.9 µM (inactive) in the assay with EKVX. In addition, the GI50 is > 65.5 µM (inactive) in the assay with HOP-92; 37.2 µM (inactive) in the assay on NCI-H23; 33.3 µM (inactive) with KM12; 24.6 µM (inactive) in the assay with SK-MEL-5; 24.9 µM (inactive) in the assay on SF-268; 28.6 µM (inactive) in the assay with SN12C. Also, the GI50 in the assay on NCI-H522 was 17.2 µM (inactive); in the assay with IGROV-1 it was 32.1 µM (inactive); in the assay with LOX IMVI, 27.7 µM (inactive); in the assay with SF-539, 29.4 µM (inactive); with SW-620 it was 29.4 µM (inactive); in the assay on Malme-3M it was 26.4 µM (inactive). The GI50 was 37.7 µM (inactive) in the assay with HT-29 and 15.6 µM (inactive) with MOLT-4.

Source of the values: ChEMBL document CHEMBL1201862, “PubChem BioAssay data set” (2004).
